This passage reports mortality results from patent publication US20250084058A1, “PHENYLPYRAZOLE COMPOUND AND APPLICATION THEREOF” (priority 2022, published 2025).

Molecules are shown by their SMILES. Read-outs that look alike come from different tables or passages of the source.

Type in all cases: in vivo
The test system of one assay is Plutella xylostella. The assay is described as follows: Activity determination of killing Plutella xylostella (Airbrush spray, cabbage leaf discs). To be noted: foliar, 3rd day after administration. As for the experimental part: (§1) The compounds to be tested were dissolved in a mixed solvent of acetone/methanol (1:1) and then diluted to desired concentrations with water containing 0.1% (wt) Tween 80.
(§2) With Mythimna separata and Plutella xylostella as targets, the activity was determined by Airbrush spray method.
Determination method: Cabbage leaves were punched into leaf discs with the diameter of 2 cm by a puncher, the pressure of Airbrush spray treatment is 10 psi (about 0.7 kg/cm^2), and the compounds to be tested were sprayed onto the front and back surfaces of each leaf disc at a liquid amount of 0.5 mL. After drying in the shade, 10 3rd instar larvae were inoculated to each treatment, and each treatment was repeated for 3 times. After the treatment, the larvae were placed in an observation room for culture at 25° C. with relative humidity of 60-70%. On 3rd day after administration, the number of surviving larvae was investigated, and the mortality was calculated.
Some compounds of the present disclosure and control compounds were selected to carry out parallel comparative experiments of the insecticidal activity against Plutella xylostella (on 3rd day after administration), and the determination method was the same as above.

The subject of the next assay is Ctenocephalides felis. The assay is described as follows: Insecticidal test on Ctenocephalides felis (compound film in culture dish). Particulars: 1 μg/cm^2; adult Ctenocephalides felis; after 72 h; 25° C.; read-out: insect mortality (Ctenocephalides felis). On the procedure: 4 mg of compounds to be tested were dissolved in 40 mL of acetone to obtain acetone solutions with a concentration of 100 mg/L. Bottom surfaces and side surfaces of culture dishes with an inner diameter of 5.3 cm were coated with 400 μL of the drug solutions, and when the acetone was volatilized, films of the compounds of the present disclosure were prepared on inner walls of the culture dishes. The inner walls of the culture dishes used were 40 cm^2, and a dose of the treatment drugs was 1 μg/cm^2. 10 adult Ctenocephalides felis (males and females were mixed) were placed in the culture dishes, and the culture dishes were covered and then stored in a constant-temperature room at 25° C. The number of dead insects was checked after 72 h, and the insect mortality was calculated. The test was repeated for 3 times. Test results: The insect mortality of compounds 1, 2, 3, 4, 5, 11, 12, 18, 32, 33, 34, 46, 60, 74, 88, 99, 101, 102, 104, 105, 108, 109, 110, 111, 113 and 114 is 70% or above.

The subject of the next assay is Tetranychus cinnabarinus. The assay is described as follows: Greenhouse acaricidal activity on adult acarids of Tetranychus cinnabarinus (spraying of Phaseolus vulgaris seedlings). To be noted: dose 1.25 mg/L, after 72 h, read-out: mortality against adult acarids of Tetranychus cinnabarinus. On the procedure:
According to the solubility of the compounds to be tested, the compounds to be tested were dissolved in acetone or dimethyl sulfoxide and prepared into 50 mL of solutions to be tested at desired concentrations with a 0.1% Tween 80 solution, where the content of the acetone or dimethyl sulfoxide in the solutions was not higher than 10%.
Two true leaves of Phaseolus vulgaris seedlings were taken, and 30-40 adult acarids of Tetranychus cinnabarinus were inoculated. After the cardinal number was investigated, the whole plants were subjected to spraying treatment with a hand-held sprayer, each treatment was repeated for 3 times, and the plants were placed in a standard observation room after the treatment. The number of surviving acarids was investigated after 72 h, and the mortality was calculated.

Another assay deals with Dermacentor variabilis. The assay can be described thus: Insecticidal test on Dermacentor variabilis (compound film in culture dish). To be noted: 1 μg/cm^2, 1st nymphs, after 24 h, 25° C., read-out: insect mortality (Dermacentor variabilis). As for the experimental part: 4 mg of compounds to be tested were dissolved in 40 mL of acetone to obtain acetone solutions with a concentration of 100 mg/L. Bottom surfaces and side surfaces of 2 culture dishes with an inner diameter of 5.3 cm were coated with 400 μL of the drug solutions, and when the acetone was volatilized, films of the compounds of the present disclosure were prepared on inner walls of the culture dishes. The inner walls of the culture dishes used were 40 cm^2, and a dose of the treatment drugs was 1 μg/cm^2. 10 1st nymphs of Dermacentor variabilis (males and females were mixed) were placed in the culture dishes. The 2 culture dishes were combined, sealed with tape at a junction portion to prevent escape of the nymphs, and then stored in a constant-temperature room at 25° C. The number of dead insects was checked after 24 h, and the insect mortality was calculated. The test was repeated for 3 times. Test results: The insect mortality of compounds 1, 2, 3, 4, 5, 11, 12, 18, 32, 33, 34, 46, 60, 74, 88, 99, 101, 102, 104, 105, 108, 109, 110, 111, 113 and 114 is 70% or above.

In another assay the test system is Mythimna separata. The assay can be described thus: Activity determination of killing Mythimna separata (Airbrush spray, corn leaf segments). Particulars: foliar, dose 1.25 mg/L, 3rd instar larvae, 3rd day after administration, read-out: mortality against Mythimna separata. As for the experimental part:
as §1, §2
Determination method: Corn leaves were cut into leaf segments with the length of 2 cm, the pressure of Airbrush spray treatment is 10 psi (about 0.7 kg/cm^2), and the compounds to be tested were sprayed onto the front and back surfaces of each leaf segment at a liquid amount of 0.5 mL. After drying in the shade, 10 3rd instar larvae were inoculated to each treatment, and each treatment was repeated for 3 times. After the treatment, the larvae were placed in an observation room for culture at 25° C. with relative humidity of 60-70%. On the 3rd day after administration, the number of surviving larvae was investigated, and the mortality was calculated.

In the case of `N#CCN(C(=O)c1cc(-c2cnn(-c3c(Cl)cc(C(F)(C(F)(F)F)C(F)(F)F)cc3Cl)c2)cnc1Cl)C1(C#N)CC1` [Compound 11], in the assay on Plutella xylostella (0.3125 mg/L, parallel comparative experiment, read-out: Mortality (%, on 3rd day after administration) 0.3125 mg/L), the mortality at 0.3125 µg/mL stood at 100%. For the same compound, the mortality at 0.625 µg/mL with Plutella xylostella (0.625 mg/L, parallel comparative experiment, read-out: Mortality (%, on 3rd day after administration) 0.625 mg/L) came out at 100%. Further, the mortality at 1.25 µg/mL in the assay on Plutella xylostella (1.25 mg/L, parallel comparative experiment, read-out: Mortality (%, on 3rd day after administration) 1.25 mg/L) was 100%; with Plutella xylostella (dose 1.25 mg/L, 3rd instar larvae, read-out: mortality against Plutella xylostella), not below 90%; with Tetranychus cinnabarinus, not below 90%; in the assay on Mythimna separata, not below 90%. The mortality at 1 µg/cm2 with Ctenocephalides felis and with Dermacentor variabilis was not below 70% each time.
